Measured values published in US20060258729A1, “Antibacterial pyrazole carboxylic acid hydrazides” (priority 2002, published 2006).
pIC50: −log10 of the molar value. ≈ marks a conversion by molar mass, not a printed value. Entries after “also recorded” stand apart in the source; their conditions may differ.

Tests used:
B. subtilis pol IIIC [1] = target: T1, B. subtilis pol IIIC (Bacillus subtilis, UniProt P13267); test: Classical enzyme kinetic analyses (Lineweaver-Burk) with pol IIIC; format: biochemical; details: variable substrate dGTP; Compound 17 at 0, 20, 60 μM; HB-EMAU at 0, 1.6, 4.8 μM
T1 construct: made in house
T1 sequence (P13267 whole entry): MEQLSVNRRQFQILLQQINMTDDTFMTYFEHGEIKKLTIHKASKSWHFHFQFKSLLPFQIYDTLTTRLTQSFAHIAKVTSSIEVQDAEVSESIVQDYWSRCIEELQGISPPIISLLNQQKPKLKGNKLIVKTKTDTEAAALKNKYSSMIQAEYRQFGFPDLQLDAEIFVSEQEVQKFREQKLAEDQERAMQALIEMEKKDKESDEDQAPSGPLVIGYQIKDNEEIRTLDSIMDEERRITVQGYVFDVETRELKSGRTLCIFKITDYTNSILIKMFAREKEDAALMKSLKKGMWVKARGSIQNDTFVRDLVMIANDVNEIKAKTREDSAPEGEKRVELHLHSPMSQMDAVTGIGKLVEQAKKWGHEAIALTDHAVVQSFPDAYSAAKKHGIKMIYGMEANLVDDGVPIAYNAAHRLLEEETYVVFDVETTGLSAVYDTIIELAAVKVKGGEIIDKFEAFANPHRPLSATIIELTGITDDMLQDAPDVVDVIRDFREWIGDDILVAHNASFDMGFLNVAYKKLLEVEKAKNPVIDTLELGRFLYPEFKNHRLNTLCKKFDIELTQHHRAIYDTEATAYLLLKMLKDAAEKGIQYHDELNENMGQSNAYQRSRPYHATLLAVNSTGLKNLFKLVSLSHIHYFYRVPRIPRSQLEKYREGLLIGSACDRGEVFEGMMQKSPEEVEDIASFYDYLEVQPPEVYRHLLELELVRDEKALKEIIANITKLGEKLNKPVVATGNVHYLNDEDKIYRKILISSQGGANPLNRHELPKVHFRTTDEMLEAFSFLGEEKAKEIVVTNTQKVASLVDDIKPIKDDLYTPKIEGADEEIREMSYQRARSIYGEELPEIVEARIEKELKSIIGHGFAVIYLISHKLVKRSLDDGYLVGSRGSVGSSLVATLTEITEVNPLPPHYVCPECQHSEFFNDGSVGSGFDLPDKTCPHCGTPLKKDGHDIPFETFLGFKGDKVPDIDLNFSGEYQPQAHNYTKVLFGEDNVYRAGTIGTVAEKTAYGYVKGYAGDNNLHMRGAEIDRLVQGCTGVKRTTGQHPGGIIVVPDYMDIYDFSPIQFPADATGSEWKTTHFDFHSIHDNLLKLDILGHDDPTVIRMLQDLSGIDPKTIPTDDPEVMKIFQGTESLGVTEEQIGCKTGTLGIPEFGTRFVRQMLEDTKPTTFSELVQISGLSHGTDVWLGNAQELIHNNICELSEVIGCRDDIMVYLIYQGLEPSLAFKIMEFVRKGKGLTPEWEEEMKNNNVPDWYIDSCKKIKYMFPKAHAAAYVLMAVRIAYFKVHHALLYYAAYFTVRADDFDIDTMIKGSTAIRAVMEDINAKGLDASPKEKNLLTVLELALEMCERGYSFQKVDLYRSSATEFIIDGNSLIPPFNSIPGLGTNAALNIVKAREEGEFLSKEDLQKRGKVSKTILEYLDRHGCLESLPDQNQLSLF
Protocol: The variable substrate in the experiments for FIGS. 1A and 1B was dGTP. See text for details.
Classical enzyme kinetic analyses were performed with Compound 17 and pol IIIC in which reaction velocity was measured as a function of each substrate (dGTP) concentration at several inhibitor concentrations (0, 20, and 60 μM). The results are graphed in a double reciprocal plot by the method of Lineweaver and Burk in FIG. 1A and show the effect of varying dGTP.
Compounds of the anilinouracil (AU) family, classical DNA polymerase inhibitors, inhibit pol IIIC strictly by “competitive” inhibition. An example is shown in the double reciprocal plot in FIG. 1B for the compound N3-hydroxybutyl 6-(3′-ethyl-4′-methylanilino) uracil (HB-EMAU), tested at 0, 1.6, and 4.8 μM. Such AU compounds compete with the dGTP substrate for binding to the enzyme (Clements et al., J. Biol. Chem. 250, 522-526 (1975)). “Noncompetive” inhibitors are exemplified by the class of HIV reverse transcriptase inhibitors, 4,5,6,7-tetrahydro-5-methylimidazo[4,5,1-jk][1,4]benzodiazepin-2(1H)-one (TIBO), i.e., TIBO compounds bind a site adjacent to the active site (Spence et al., Science 267, 988-993 (1995)). In contrast, the data in FIG. 1A clearly indicate that Compound 17, a pyrazole carboxylic acid hydrazide, inhibits pol IIIC by an “uncompetitive” mechanism.

[2] = system: vancomycin-resistant Enterococcus strain B42762; test: Inhibition of bacterial growth (MIC), VRE; format: cell-based; details: 16 to 18 hours, 37° C.; for MIC: VRE, read-out: Minimum Inhibitory Concentration for Bacterial Growth, VRE
Protocol: (§1) Each compound was assayed against a panel of a strain of Bacillus subtilis, of strains of antibiotic-resistant and sensitive Enterococcus and Staphylococcus species, and of a strain of the Gram-negative bacterium Escherichia coli. Compounds were dissolved in DMSO at 100× the desired highest concentration and added to one well of a 96-well microassay plate. Two-fold serial drug dilutions were made across the plate in DMSO to yield 11 concentrations (usually 80-0.078 μg/mL) plus an untreated control. Drugs were then transferred to fresh plates using 1.5 μL per well. Log phase cultures were diluted to yield a concentration of 1×10^5 colony forming units/mL in either LB or BHI medium and transferred to the plates containing drug for a final volume of 150 μL. Each well, including the DMSO controls, contained a final concentration of 1% DMSO. Plates were incubated with shaking at 37° C. for 16 to 18 hours. Cell growth was determined by measuring optical density (570 nm, 1 cm path length) in a microplate reader. MIC (minimum inhibitory concentration) is equivalent to the lowest concentration at which growth is not observed. The bacterial strains and MIC determinations have been well characterized and are described elsewhere (Tarantino et al., Antimicrob. Agents Chemother., 43: 1982-1987 (1999); Daly et al., Antimicrob. Agents Chemother., 44: 2217-2221 (2000)).

[3] = system: methicillin-resistant S. aureus strain 1094; test: Inhibition of bacterial growth (MIC), MRSA; format: cell-based, Staphylococcus aureus; details: 16 to 18 hours, 37° C.; for MIC: Staphylococcus aureus, MRSA, read-out: Minimum Inhibitory Concentration for Bacterial Growth, MRSA
Protocol: as §1

B. subtilis pol IIIE [4] = target: T2, B. subtilis pol IIIE (Bacillus subtilis, UniProt O34623); test: DNA polymerase assay, B. subtilis pol IIIE; format: biochemical
T2 construct: made in house
T2 sequence (O34623 whole entry): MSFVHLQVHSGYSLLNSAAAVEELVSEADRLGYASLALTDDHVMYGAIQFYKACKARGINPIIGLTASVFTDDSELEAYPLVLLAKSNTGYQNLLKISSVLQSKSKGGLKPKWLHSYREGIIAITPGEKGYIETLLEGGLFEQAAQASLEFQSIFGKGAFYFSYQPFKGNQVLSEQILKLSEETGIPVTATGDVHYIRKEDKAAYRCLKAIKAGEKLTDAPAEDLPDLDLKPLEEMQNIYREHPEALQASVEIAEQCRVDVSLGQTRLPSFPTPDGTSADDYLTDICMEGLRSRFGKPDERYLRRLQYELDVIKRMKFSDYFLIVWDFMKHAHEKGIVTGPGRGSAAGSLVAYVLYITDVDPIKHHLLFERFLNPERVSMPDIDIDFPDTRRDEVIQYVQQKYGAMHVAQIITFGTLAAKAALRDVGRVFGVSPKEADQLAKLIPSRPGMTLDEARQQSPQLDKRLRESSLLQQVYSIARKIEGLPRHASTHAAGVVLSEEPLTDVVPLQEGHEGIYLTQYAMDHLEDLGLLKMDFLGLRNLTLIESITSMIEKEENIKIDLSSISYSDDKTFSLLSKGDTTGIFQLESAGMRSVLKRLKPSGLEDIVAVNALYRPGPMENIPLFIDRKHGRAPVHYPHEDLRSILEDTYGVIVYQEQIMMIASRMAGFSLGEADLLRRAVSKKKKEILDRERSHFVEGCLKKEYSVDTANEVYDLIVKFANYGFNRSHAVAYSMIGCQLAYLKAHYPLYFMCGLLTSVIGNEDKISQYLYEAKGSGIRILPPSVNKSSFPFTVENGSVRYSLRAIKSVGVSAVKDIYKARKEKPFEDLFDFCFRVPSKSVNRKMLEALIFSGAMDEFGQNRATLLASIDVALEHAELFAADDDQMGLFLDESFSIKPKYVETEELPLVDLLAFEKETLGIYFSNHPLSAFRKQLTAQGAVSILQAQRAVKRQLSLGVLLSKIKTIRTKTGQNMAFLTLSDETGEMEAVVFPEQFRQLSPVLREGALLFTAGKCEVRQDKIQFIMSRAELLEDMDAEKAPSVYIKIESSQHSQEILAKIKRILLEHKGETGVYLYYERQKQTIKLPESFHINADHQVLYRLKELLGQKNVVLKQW

[5] = system: Enterococcus faecalis strain 29212; test: Inhibition of bacterial growth (MIC), Efcl; format: cell-based; details: 16 to 18 hours, 37° C.; for MIC: read-out: Minimum Inhibitory Concentration for Bacterial Growth, Efcl
Protocol: as §1

B. subtilis pol IIIE [6] = target: T2, B. subtilis pol IIIE; test: DNA polymerase assay, B. subtilis pol IIIE; format: biochemical; details: for pIC50: B. subtilis Pol IIIE IC50, 4 dNTPs, in the presence of all four dNTP substrates
Protocol: (§2) Recombinant, purified pol IIIC and pol IIIE from Bacillus subtilis were obtained using known methods (Hammond et al., Gene 98: 29-36 (1991), regarding pol IIIC; Barnes et al., J. Bacteriol. 184, 3834-3838 (2002), regarding pol IIIE). Recombinant, purified pol IIIE from Escherichia coli was obtained from a commercial source (Enzyco, Denver, Colo.). The enzyme assays were performed in 96-well plate format using the same assay mix for all three enzymes. Each 25 μL assay contained 30 mM Tris, pH 7.5, 10 mM magnesium acetate, 4 mM dithiothreitol, 20% glycerol, with 10 μM dATP, dCTP, dGTP and dTTP (3H-labelled at 1.44 Ci/mmole) and 0.4 mg/mL activated calf thymus DNA as substrates. Dilutions of compounds were added to the plate in 1% DMSO (1 μL/well). Assays were initiated by the addition of 0.025 to 0.06 units of enzyme (1 unit is the amount required to incorporate 250 pmoles of [^3H] dTMP in a standard assay), incubated for 10 min at 30° C. and terminated by the addition of 200 μL of cold 10% trichloroacetic acid, 10 mM sodium pyrophosphate. Precipitated labeled DNA was collected on glass fiber filter plates that had been pre-wet with ice cold 1 M HCl, 100 mM sodium pyrophosphate. The plates were washed with the HCl solution followed by ice cold 90% ethanol and then dried and counted in a liquid scintillation counter. The calculated IC50 is the concentration needed to inhibit 50% of the DNA polymerase activity in the presence of all four dNTP substrates. In addition, percent inhibition values are calculated as the percent reduction in the activity of a DMSO (diluent) control.

[7] = system: Escherichia coli strain J53; test: Inhibition of bacterial growth (MIC), Ec; format: cell-based; details: 16 to 18 hours, 37° C.; for MIC: read-out: Minimum Inhibitory Concentration for Bacterial Growth, Ec
Protocol: as §1

[8] = system: Staphylococcus aureus strain IP 8; test: Inhibition of bacterial growth (MIC), Sa; format: cell-based; details: 37° C.; for MIC: IP8, 16 to 18 hours, read-out: Minimum Inhibitory Concentration for Bacterial Growth, Sa
Protocol: as §1

[9] = system: E. faecium clinical isolate; test: Inhibition of bacterial growth (MIC), Efcm; format: cell-based; details: 16 to 18 hours, 37° C.; for MIC: Enterococcus faecium, read-out: Minimum Inhibitory Concentration for Bacterial Growth, Efcm
Protocol: as §1

B. subtilis pol IIIC [10] = target: T1, B. subtilis pol IIIC; test: DNA polymerase assay, B. subtilis pol IIIC; format: biochemical; details: for inhibition at 80 µg/mL: read-out: Percent Enzymatic Inhibition B. subtilis pol IIIC
Protocol: as §2, with “Each 25 μL assay contained 30 mM Tris, pH 7.5, 10 mM magnesium acetate, 4 mM dithiothreitol, 20% glycerol, with 10 μM dATP, dCTP, dGTP and dTTP (3H-labelled at 1.44 Ci/mmole) and 0.4 mg/mL activated calf thymus DNA as substrates.” left out, “The calculated IC50 is the concentration needed to inhibit 50% of the DNA polymerase activity in the presence of all four dNTP substrates.” left out

test strains of bacteria = test: Inhibition of bacterial growth, whole panel of test strains; format: cell-based
Protocol: as §1

[11] = system: Bacillus subtilis strain BD54; test: Inhibition of bacterial growth (MIC), Bs; format: cell-based; details: 16 to 18 hours, 37° C.; for MIC: read-out: Minimum Inhibitory Concentration for Bacterial Growth, Bs
Protocol: as §1

S. aureus Smith strain = test: Inhibition of bacterial growth (MIC), Sm; format: cell-based, Staphylococcus aureus; details: 16 to 18 hours, 37° C.; for MIC: Staphylococcus aureus, read-out: Minimum Inhibitory Concentration for Bacterial Growth, Sm
Protocol: as §1

E. coli pol IIIE = target: T3, E. coli pol IIIE (Escherichia coli, UniProt P10443); test: DNA polymerase assay, E. coli pol IIIE; format: biochemical; details: 80 μg/mL (190-260 μM) final concentration, all four dNTPs
T3 construct: purchased Enzyco, Denver, Colo
T3 sequence (P10443 whole entry): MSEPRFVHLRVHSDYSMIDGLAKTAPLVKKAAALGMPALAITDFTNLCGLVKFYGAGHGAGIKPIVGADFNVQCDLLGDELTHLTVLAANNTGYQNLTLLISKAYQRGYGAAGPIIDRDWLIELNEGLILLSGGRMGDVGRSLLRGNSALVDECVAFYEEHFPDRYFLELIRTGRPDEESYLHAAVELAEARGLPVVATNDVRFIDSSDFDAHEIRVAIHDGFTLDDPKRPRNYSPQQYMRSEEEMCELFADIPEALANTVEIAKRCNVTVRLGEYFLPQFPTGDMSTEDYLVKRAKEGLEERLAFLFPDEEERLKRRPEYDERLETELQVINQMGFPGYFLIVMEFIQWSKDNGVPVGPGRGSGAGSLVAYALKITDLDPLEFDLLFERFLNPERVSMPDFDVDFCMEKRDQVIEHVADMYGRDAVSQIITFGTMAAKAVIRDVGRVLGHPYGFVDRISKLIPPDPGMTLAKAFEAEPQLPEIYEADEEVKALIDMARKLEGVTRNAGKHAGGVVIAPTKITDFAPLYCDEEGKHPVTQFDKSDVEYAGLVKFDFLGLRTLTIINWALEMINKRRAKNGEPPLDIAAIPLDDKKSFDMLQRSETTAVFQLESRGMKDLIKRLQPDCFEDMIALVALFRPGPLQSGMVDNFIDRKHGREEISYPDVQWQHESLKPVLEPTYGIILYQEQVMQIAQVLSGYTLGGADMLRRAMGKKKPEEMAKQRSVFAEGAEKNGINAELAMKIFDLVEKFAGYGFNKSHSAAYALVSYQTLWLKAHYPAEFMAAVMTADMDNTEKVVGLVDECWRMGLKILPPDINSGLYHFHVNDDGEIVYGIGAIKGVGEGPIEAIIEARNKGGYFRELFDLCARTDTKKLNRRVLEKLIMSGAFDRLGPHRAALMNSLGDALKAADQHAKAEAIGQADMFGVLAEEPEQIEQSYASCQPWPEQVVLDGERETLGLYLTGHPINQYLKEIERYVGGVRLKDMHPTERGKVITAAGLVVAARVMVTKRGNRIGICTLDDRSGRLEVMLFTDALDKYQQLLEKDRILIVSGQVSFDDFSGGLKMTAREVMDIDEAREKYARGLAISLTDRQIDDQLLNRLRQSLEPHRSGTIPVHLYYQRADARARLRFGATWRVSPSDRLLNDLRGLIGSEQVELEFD
Protocol: as §2

[12] = B. subtilis Pol IIIE IC50, −dATP, in the absence of dATP
[13] = B. subtilis Pol IIIE IC50, −dCTP, in the absence of dCTP
[14] = B. subtilis Pol IIIE IC50, −dGTP, in the absence of dGTP
[15] = 80 μg/mL (190-260 μM) final concentration, all four dNTPs
[16] = B. subtilis Pol IIIC IC50, 4 dNTPs, in the presence of all four dNTP substrates
[17] = B. subtilis Pol IIIC IC50, −dATP, in the absence of dATP
[18] = B. subtilis Pol IIIC IC50, −dCTP, in the absence of dCTP
[19] = B. subtilis Pol IIIC IC50, −dGTP, in the absence of dGTP

| Structure (SMILES) | MIC [2] [µg/mL] | MIC [3] [µg/mL] | pIC50 (B. subtilis pol IIIE [4]; [12]) | pIC50 (B. subtilis pol IIIE [4]; [13]) | pIC50 (B. subtilis pol IIIE [4]; [14]) | MIC [5] [µg/mL] | pIC50 (B. subtilis pol IIIE [6]) | MIC [7] [µg/mL] | MIC [8] [µg/mL] | MIC [9] [µg/mL] | inhibition at 80 µg/mL (B. subtilis pol IIIC [10]; [15]) [%] | pIC50 (B. subtilis pol IIIC [10]; [16]) | pIC50 (B. subtilis pol IIIC [10]; [17]) | pIC50 (B. subtilis pol IIIC [10]; [18]) | pIC50 (B. subtilis pol IIIC [10]; [19]) | Inhibition of bacterial growth, result in words (rank of MIC values) (test strains of bacteria) | MIC [11] [µg/mL] | MIC (S. aureus Smith strain) [µg/mL] | further results |
| --- | --- | --- | --- | --- | --- | --- | --- | --- | --- | --- | --- | --- | --- | --- | --- | --- | --- | --- | --- |
| CCc1cc(Nc2cc(=O)n(CCCCO)c(=O)[nH]2)ccc1C [HB-EMAU, N3-hydroxybutyl 6-(3′-ethyl-4′-methylanilino) uracil, reference compound] |  |  |  |  |  |  |  |  |  |  |  |  |  |  |  |  |  |  | Mechanism of inhibition of pol IIIC (double reciprocal plot) (B. subtilis pol IIIC [1]): competitive inhibition mechanism |
| COc1ccc(-c2cc(C(=O)NN=Cc3ccc(OC)c(OC)c3)[nH]n2)cc1 [Compound 18] | 20 (≈ 52.6 µM) | 10 (≈ 26.3 µM) | 3.46 | < 3.00 | < 3.00 | 40 (≈ 105 µM) | 3.56 | > 80 | 5 (≈ 13.1 µM) | 20 (≈ 52.6 µM) | > 20 | 3.04 | 4.64 | 5.19 | 5.26 | third place | 2.5 (≈ 6.57 µM) | 5 (≈ 13.1 µM) | inhibition at 80 µg/mL (B. subtilis pol IIIE [6]; 80 μg/mL (190-260 μM) final concentration, all four dNTPs, read-out: Percent Enzymatic Inhibition B. subtilis pol IIIE): > 20% |
| COc1cc(C=NNC(=O)c2cc(-c3ccccc3)n[nH]2)cc(OC)c1OC [Compound 1] | 20 (≈ 52.6 µM) | 10 (≈ 26.3 µM) | 4.12 | 4.21 | 4.29 | 10 (≈ 26.3 µM) | 3.78 | > 80 | 3 (≈ 7.89 µM) | 20 (≈ 52.6 µM) | 14.3 | 3.73 | 5.00 | 4.36 | 4.85 | second | 3 (≈ 7.89 µM) | 5 (≈ 13.1 µM) | inhibition at 80 µg/mL (E. coli pol IIIE; read-out: Percent Enzymatic Inhibition E. coli pol IIIE): 0.4% |
| CCOc1cccc(-c2cc(C(=O)NN=Cc3cccc(OC)c3O)[nH]n2)c1 [Compound 7] |  |  |  |  |  |  |  |  |  |  |  |  |  |  |  | able to inhibit growth |  |  | Minimum Inhibitory Concentration for Bacterial Growth, VRE [2]: >80 µg/mL; Percent Enzymatic Inhibition E. coli pol IIIE (E. coli pol IIIE): not sufficient to show a significant inhibition; also recorded: Inactive; Minimum Inhibitory Concentration for Bacterial Growth, MRSA [3]: 30 µg/mL; Minimum Inhibitory Concentration for Bacterial Growth, Efcl [5]: >80 µg/mL; Percent Enzymatic Inhibition B. subtilis pol IIIE (B. subtilis pol IIIE [6]; [15]): not sufficient to show a significant inhibition; also recorded: Inactive; Minimum Inhibitory Concentration for Bacterial Growth, Ec [7]: >80 µg/mL; Minimum Inhibitory Concentration for Bacterial Growth, Sa ([8]; 16 to 18 hours): 30 µg/mL; Minimum Inhibitory Concentration for Bacterial Growth, Efcm [9]: >80 µg/mL; Percent Enzymatic Inhibition B. subtilis pol IIIC (B. subtilis pol IIIC [10]; [15]): not sufficient to show a significant inhibition; also recorded: Inactive; Minimum Inhibitory Concentration for Bacterial Growth, Bs [11]: 80 µg/mL; Minimum Inhibitory Concentration for Bacterial Growth, Sm (S. aureus Smith strain): 40 µg/mL |
